Test results published in US12448394B2, “Heterocyclic pyrazole derivatives as type III receptor tyrosine kinase inhibitors” (DEVELOPMENT CENTER FOR BIOTECHNOLOGY, priority 2019, dated 2025).

How the values were obtained:
[1] = system: phosphorylation of FLT3 and its down-stream effector STAT5; assay: Western blotting of p-FLT3 and p-STAT5 in MV4-11 cells; assay type: cell-based; conditions: Homo sapiens; at 30 nM treatment, 3 hours, FLT3-ITD positive MV4-11 leukemia cells; read-out: inhibition activity against phosphorylation of FLT3 and its down-stream effector STAT5
Summary of the method: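 MV4-11 cells held overnight in IMDM with 0.1% FBS, then 3 million cells treated with compound for 3 h. Whole lysates immunoblotted for p-FLT3 (Tyr-591), p-STAT5 (Tyr-694) and actin. Band intensities at 30 nM compared to DMSO control; % inhibition = (1 − relative intensity) × 100.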

[2] = system: Molm-14 human acute myeloid leukemia cell with FLT3-ITD mutation; assay: Molm-14 cell proliferation assay (CellTiter 96); assay type: cell-based; conditions: Homo sapiens; Molm-14 cells, 72 hours treatment, CellTiter96; read-out: anti-proliferation activity Molm-14 (FLT3-ITD), IC50 ranking
Summary of the method: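 Molm-14 (FLT3-ITD AML) cells in RPMI 1640 with 10% heat-inactivated FBS were seeded at 25000 cells/well, incubated overnight at 37° C, 5% CO2, then treated with increasing compound concentrations for 72 hours. Viability was read as absorbance at 490 nm after 2˜4 hours with CellTiter96 AQueous One reagent.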

FLT3 kinase = target: T1, FLT3 kinase (Homo sapiens, UniProt P36888); assay: FLT3 kinase assay (AlphaScreen); assay type: biochemical; conditions: read-out: Ranking of IC50 values, FLT3
T1 construct: purchased SignalChem
T1 sequence (P36888 27-993): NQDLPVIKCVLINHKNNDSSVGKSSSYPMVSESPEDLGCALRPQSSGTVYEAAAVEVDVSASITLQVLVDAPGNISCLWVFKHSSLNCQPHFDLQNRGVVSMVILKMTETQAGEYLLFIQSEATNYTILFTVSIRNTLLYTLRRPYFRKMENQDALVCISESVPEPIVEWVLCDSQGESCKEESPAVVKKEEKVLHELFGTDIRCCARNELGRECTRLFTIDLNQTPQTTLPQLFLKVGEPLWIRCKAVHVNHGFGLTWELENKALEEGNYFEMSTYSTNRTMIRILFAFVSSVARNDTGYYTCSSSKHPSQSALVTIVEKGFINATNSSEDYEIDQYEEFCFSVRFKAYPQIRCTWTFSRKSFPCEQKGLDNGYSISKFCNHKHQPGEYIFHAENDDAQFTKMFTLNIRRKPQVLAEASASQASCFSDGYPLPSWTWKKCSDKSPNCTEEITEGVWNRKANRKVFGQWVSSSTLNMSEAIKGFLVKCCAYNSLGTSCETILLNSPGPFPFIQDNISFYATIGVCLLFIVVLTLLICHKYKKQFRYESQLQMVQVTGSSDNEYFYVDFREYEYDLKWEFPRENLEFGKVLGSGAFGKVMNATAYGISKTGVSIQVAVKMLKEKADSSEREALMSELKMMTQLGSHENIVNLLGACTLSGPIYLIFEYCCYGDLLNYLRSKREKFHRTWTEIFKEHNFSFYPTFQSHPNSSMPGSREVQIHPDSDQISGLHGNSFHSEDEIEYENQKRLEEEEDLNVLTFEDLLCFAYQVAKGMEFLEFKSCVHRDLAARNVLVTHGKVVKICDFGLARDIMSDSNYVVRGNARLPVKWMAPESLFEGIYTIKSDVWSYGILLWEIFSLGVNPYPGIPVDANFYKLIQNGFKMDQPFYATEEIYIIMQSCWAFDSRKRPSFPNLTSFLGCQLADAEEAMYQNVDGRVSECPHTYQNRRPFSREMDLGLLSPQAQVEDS
Summary of the method: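 AlphaScreen detection of biotin-poly(Glu4:Tyr1) phosphorylation by 1.5 ng recombinant FLT3 (10 μM ATP, pH 7.0 MOPS, 10 mM MgCl2; 30 °C, 30 min, EDTA quench). IC50 values derived from serially diluted compound tested in duplicate.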

SMILES | inhibition at 0.03 µM [1] | IC50 [2] | IC50 (FLT3 kinase)
COc1ccc(-c2cc3c(s2)Cc2c(-c4ccc5[nH]ncc5c4)n[nH]c2-3)cn1 [Compound 1, 3-(1H-indazol-5-yl)-6-(6-methoxypyridin-3-yl)-1,4-dihydrothieno[2′,3′:4,5] cyclopenta[1,2-c]pyrazole] | > 50% | 30 to 100 nM | –
COc1ccc(-c2cc3c(s2)Cc2c(-c4ccc5cn[nH]c5c4)n[nH]c2-3)cn1 [Compound 2, 3-(1H-indazol-6-yl)-6-(6-methoxypyridin-3-yl)-1,4-dihydrothieno[2′,3′:4,5] cyclopenta[1,2-c]pyrazole] | > 50% | 30 to 100 nM | –
Nc1ccc(-c2cc3c(s2)Cc2c(-c4ccc5cn[nH]c5c4)n[nH]c2-3)cn1 [Compound 3, 5-(3-(1H-indazol-6-yl)-1,4-dihydrothieno[2′,3′:4,5]cyclopenta[1,2-c]pyrazol-6-yl)pyridin-2-amine] | > 50% | < 30 nM | –
COc1ccc(-c2cc3c(s2)Cc2c(-c4ccc5cnn(C)c5c4)n[nH]c2-3)cn1 [Compound 4, 6-(6-methoxypyridin-3-yl)-3-(1-methyl-1H-indazol-6-yl)-1,4-dihydrothieno [2′,3′:4,5]cyclopenta[1,2-c] pyrazole] | – | 100 to 300 nM | 1 to 10 nM
Cc1ccc(-c2cc3c(s2)Cc2c(-c4ccc5cn[nH]c5c4)n[nH]c2-3)cn1 [Compound 30, 3-(1H-indazol-6-yl)-6-(6-methylpyridin-3-yl)-1,4-dihydrothieno[2′,3′:4,5] cyclopenta[1,2-c]pyrazole] | > 50% | 30 to 100 nM | –
Cc1ccc(-c2cc3c(s2)Cc2c(-c4ccc5[nH]ncc5c4)n[nH]c2-3)cn1 [Compound 36, 3-(1H-indazol-5-yl)-6-(6-methylpyridin-3-yl)-1,4-dihydrothieno[2′,3′:4,5] cyclopenta[1,2-c]pyrazole] | > 50% | 30 to 100 nM | –
Nc1ccc(-c2cc3c(s2)Cc2c(-c4ccc5[nH]ncc5c4)n[nH]c2-3)cn1 [Compound 40, 5-(3-(1H-indazol-5-yl)-1,4-dihydrothieno [2′,3′:4,5]cyclopenta [1,2-c]pyrazol-6-yl) pyridin-2-amine] | > 50% | < 30 nM | –
Cn1ncc2ccc(-c3n[nH]c4c3Cc3sc(-c5ccc(CN6CCOC6=O)cc5)cc3-4)cc21 [Compound 62, 3-(4-(3-(1-methyl-1H-indazol-6-yl)-1,4-dihydro-thieno[2′,3′:4,5]cyclopenta [1,2-c]pyrazol-6-yl)benzyl)oxazolidin-2-one] | > 50% | 30 to 100 nM | –
Cc1n[nH]c2cc(-c3n[nH]c4c3Cc3sc(-c5ccc(CN6CCOCC6)cc5)cc3-4)ccc12 [Compound 81, 4-(4-(3-(3-methyl-1H-indazol-6-yl)-1,4-dihydro-thieno[2′,3′:4,5]cyclopenta [1,2-c]pyrazol-6-yl)benzyl)morpholine] | – | 300 to 1000 nM | 1 to 10 nM
Cn1ncc2ccc(-c3n[nH]c4c3Cc3sc(-c5ccc(N6CCOCC6)nc5)cc3-4)cc21 [Compound 82, 4-(5-(3-(1-methyl-1H-indazol-6-yl)-1,4-dihydro-thieno[2′,3′:4,5]cyclopenta [1,2-c]pyrazol-6-yl)pyridin-2-yl)morpholine] | – | 300 to 1000 nM | 1 to 10 nM
CN1CCN(Cc2ccc(-c3cc4c(s3)Cc3c(-c5ccc6cn[nH]c6c5)n[nH]c3-4)cc2)CC1 [Compound 83, 3-(1H-indazol-6-yl)-6-(4-((4-methylpiperazin-1-yl)methyl)phenyl)-1,4-dihydrothieno[2′,3′:4,5] cyclopenta[1,2-c]pyrazole] | > 50% | < 30 nM | < 1 nM
CN1CCN(Cc2ccc(-c3cc4c(s3)Cc3c(-c5ccc6cnn(C)c6c5)n[nH]c3-4)cc2)CC1 [Compound 84, 3-(1-methyl-1H-indazol-6-yl)-6-(4-((4-methylpiperazin-1-yl)methyl)phenyl)-1,4-dihydrothieno [2′,3′:4,5]cyclopenta [1,2-c]pyrazole] | > 50% | < 30 nM | < 1 nM
CN1CCN(c2ccc(-c3cc4c(s3)Cc3c(-c5ccc6cnn(C)c6c5)n[nH]c3-4)cn2)CC1 [Compound 85, 3-(1-methyl-1H-indazol-6-yl)-6-(6-(4-methyl-piperazin-1-yl)pyridin-3-yl)-1,4-dihydrothieno [2′,3′:4,5]cyclopenta [1,2-c]pyrazole] | – | 300 to 1000 nM | < 1 nM
Cn1ncc2ccc(-c3n[nH]c4c3Cc3sc(-c5ccnc(Cl)c5)cc3-4)cc21 [Compound 86, 6-(2-chloropyridin-4-yl)-3-(1-methyl-1H-indazol-6-yl)-1,4-dihydrothieno [2′,3′:4,5]cyclopenta [1,2-c]pyrazole] | – | 100 to 300 nM | 1 to 10 nM
CN1CCN(c2cc(-c3cc4c(s3)Cc3c(-c5ccc6cnn(C)c6c5)n[nH]c3-4)ccn2)CC1 [Compound 87, 3-(1-methyl-1H-indazol-6-yl)-6-(2-(4-methyl-piperazin-1-yl)pyridin-4-yl)-1,4-dihydrothieno [2′,3′:4,5]cyclopenta [1,2-c]pyrazole] | – | 300 to 1000 nM | < 1 nM
Cn1ncc2ccc(-c3n[nH]c4c3Cc3sc(-c5ccc(CN6CCOCC6)c(F)c5F)cc3-4)cc21 [Compound 88, 4-(2,3-difluoro-4-(3-(1-methyl-1H-indazol-6-yl)-1,4-dihydrothieno [2′,3′:4,5]cyclopenta [1,2-c]pyrazol-6-yl)benzyl)morpholine] | – | 300 to 1000 nM | 1 to 10 nM
Cn1nnc2ccc(-c3n[nH]c4c3Cc3sc(-c5ccc(CN6CCOCC6)cc5)cc3-4)cc21 [Compound 89, 4-(4-(3-(1-methyl-1H-benzo[d][1,2,3]triazol-6-yl)-1,4-dihydrothieno [2′,3′:4,5]cyclopenta [1,2-c]pyrazol-6-yl)benzyl)morpholine] | > 50% | 30 to 100 nM | 1 to 10 nM
Cn1ncc2ccc(-c3n[nH]c4c3Cc3sc(-c5ccc(CN6CCOCC6)cc5OC(F)(F)F)cc3-4)cc21 [Compound 90, 4-(4-(3-(1-methyl-1H-indazol-6-yl)-1,4-dihydro-thieno[2′,3′:4,5]cyclopenta [1,2-c]pyrazol-6-yl)-3-(trifluoromethoxy)benzyl) morpholine] | – | 300 to 1000 nM | 1 to 10 nM
Cc1cc(CN2CCOCC2)ccc1-c1cc2c(s1)Cc1c(-c3ccc4cnn(C)c4c3)n[nH]c1-2 [Compound 91, 4-(3-methyl-4-(3-(1-methyl-1H-indazol-6-yl)-1,4-dihydrothieno [2′,3′:4,5]cyclopenta [1,2-c]pyrazol-6-yl)benzyl)morpholine] | – | 100 to 300 nM | 1 to 10 nM
CN(C)Cc1ccc(-c2cc3c(s2)Cc2c(-c4ccc5cnn(C)c5c4)n[nH]c2-3)cn1 [Compound 93, N,N-dimethyl-1-(5-(3-(1-methyl-1H-indazol-6-yl)-1,4-dihydrothieno [2′,3′:4,5]cyclopenta [1,2-c]pyrazol-6-yl)pyridin-2-yl)methanamine] | – | 100 to 300 nM | 1 to 10 nM
Cn1ncc2ccc(-c3n[nH]c4c3Cc3sc(-c5ccc(CN6CCNCC6=O)cc5)cc3-4)cc21 [Compound 101, 1-(4-(3-(1-methyl-1H-indazol-6-yl)-1,4-dihydro-thieno[2′,3′:4,5]cyclopenta [1,2-c]pyrazol-6-yl)benzyl)piperazin-2-one] | > 50% | < 30 nM | –
